According to patent US20230183239A1, “ECTONUCLEOTIDE PYROPHOSPHATASE-PHOSPHODIESTERASE 1 (ENPP-1) INHIBITORS AND USES THEREOF” (AbbVie Inc., priority 2017, published 2023):
pKi: −log10 of the molar value.

Legend:
Format in all cases: biochemical
[1] = molecular target: T1, ENPP1 (Homo sapiens, UniProt P22413); assay: Substrate selectivity ratio, inhibition of cGAMP hydrolysis versus ATP hydrolysis; details: ratio Ki AMP-pNP / Ki cGAMP
T1 sequence (P22413 1-925): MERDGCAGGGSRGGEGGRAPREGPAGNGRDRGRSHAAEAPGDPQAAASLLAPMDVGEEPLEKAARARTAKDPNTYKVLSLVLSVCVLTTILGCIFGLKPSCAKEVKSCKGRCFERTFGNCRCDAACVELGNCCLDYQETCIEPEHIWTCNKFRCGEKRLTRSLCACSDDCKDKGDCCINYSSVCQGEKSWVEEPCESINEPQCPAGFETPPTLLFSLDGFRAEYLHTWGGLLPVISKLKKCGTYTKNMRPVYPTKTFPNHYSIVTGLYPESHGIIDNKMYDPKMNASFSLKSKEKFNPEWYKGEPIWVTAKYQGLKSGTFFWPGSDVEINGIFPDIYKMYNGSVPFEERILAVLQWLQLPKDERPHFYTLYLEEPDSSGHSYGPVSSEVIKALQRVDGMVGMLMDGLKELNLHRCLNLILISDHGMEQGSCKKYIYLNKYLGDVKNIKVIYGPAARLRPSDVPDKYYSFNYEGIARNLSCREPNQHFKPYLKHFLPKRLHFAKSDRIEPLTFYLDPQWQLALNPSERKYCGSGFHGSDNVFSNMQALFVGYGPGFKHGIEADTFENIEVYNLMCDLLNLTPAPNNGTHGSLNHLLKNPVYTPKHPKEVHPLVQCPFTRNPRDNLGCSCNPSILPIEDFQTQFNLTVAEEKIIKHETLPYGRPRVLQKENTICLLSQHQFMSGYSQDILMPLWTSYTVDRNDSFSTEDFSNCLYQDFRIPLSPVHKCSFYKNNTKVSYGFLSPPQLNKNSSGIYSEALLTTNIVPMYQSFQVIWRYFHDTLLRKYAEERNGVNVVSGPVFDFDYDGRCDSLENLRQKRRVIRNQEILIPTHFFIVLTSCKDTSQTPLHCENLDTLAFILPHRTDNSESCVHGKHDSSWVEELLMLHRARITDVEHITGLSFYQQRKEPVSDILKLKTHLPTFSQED
Method: The selectivity ratios for inhibition of cGAMP hydrolysis versus ATP hydrolysis were then calculated as follows: […]

[2] = molecular target: T1, ENPP1; assay: Indirect quantitation of 2',3'-cGAMP hydrolysis (AMP-Glo Assay kit); details: cGAMP substrate; Ki from IC50 by Cheng-Prusoff; read-out: ENPP1 Inhibition -cGAMP: Ki
[3] = molecular target: T1, ENPP1; assay: ENPP1 enzyme assay with AMP-pNP substrate (hydrolysis of ATP analog); details: AMP-pNP substrate (ATP analog); Ki from IC50 by Cheng-Prusoff; read-out: ENPP1 Inhibition _AMP-pNP: Ki
Procedure, shortened: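 Human recombinant ENPP1 (60 ng/well) with 300 µM AMP-pNP in 50 mM Tris-HCl pH 8.5, 250 mM NaCl, 0.5 mM CaCl2, 1 µM ZnCl2, 0.1% DMSO, 20 min at 37 °C.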

Row | Compound | Substrate Selectivity: Ki_AMP-pNP/Ki_cGAMP [1] | pKi [2] | pKi [3]
1 | COc1ccc2c(N3CCC4(CCNC4)CC3)c(C#N)cnc2c1 [Example 275, 7-methoxy-4-(2,8-diazaspiro[4.5]decan-8-yl)quinoline-3-carbonitrile] | >7.7 | 6.00 to 7.00 | < 6.00
2 | COc1ccc2c(Oc3ccc(NS(N)(=O)=O)cc3C(F)(F)F)ccnc2c1 [Example 317, N-(4-((7-methoxyquinolin-4-yl)oxy)-3-(trifluoromethyl)phenyl)sulfamide] | >49.9 | 6.00 to 7.00 | < 6.00
3 | COc1cc2ncnc(N3CCC(CCC(N)=O)CC3)c2cc1OC [Example 222, 3-(1-(6,7-dimethoxyquinazolin-4-yl)piperidin-4-yl)propanamide] | > 14.6 | 6.00 to 7.00 | < 6.00
4 | COc1cc2nccc(N3CC4(C3)CN(S(N)(=O)=O)C4)c2cc1OC [Example 214, 6-(6,7-dimethoxyquinolin-4-yl)-2,6-diazaspiro[3.3]heptane-2-sulfonamide] | > 15.3 | 6.00 to 7.00 | < 6.00
5 | COc1cc2ncnc(N3CCC(CCNS(=O)(=O)NC(C)=O)CC3)c2cc1OC [Example 200, N-(N-(2-(1-(6,7-dimethoxyquinazolin-4-yl)piperidin-4-yl)ethyl)sulfamoyl)acetamide] | >64.2 | 6.00 to 7.00 | < 6.00
6 | COc1cc2ncnc(N3CCC(CCn4nnc(N)n4)CC3)c2cc1OC [Example 195, 2-(2-(1-(6,7-dimethoxyquinazolin-4-yl)piperidin-4-yl)ethyl)-2H-tetrazol-5-amine] | > 45.7 | 6.00 to 7.00 | < 6.00
7 | COc1ccc2c(-c3ccc(CS(N)(=O)=O)cc3)ccnc2c1 [Example 406, (4-(7-methoxy quinolin-4-yl)phenyl)methane sulfonamide] | >65 | 6.00 to 7.00 | < 6.00
8 | COc1ccc2c(-c3ccc(CNS(N)(=O)=O)cc3)ccnc2n1 [Example 63, N-(4-(7-methoxy-1,8-naphthyridin-4-yl)benzyl)sulfamide] | 28.0 | > 7.00 | > 7.00
9 | COc1ccc2c(Oc3ccc(NS(N)(=O)=O)cc3)c(C)cnc2c1 [Example 300, N-(4-((7-methoxy-3-methylquinolin-4-yl)oxy)phenyl)sulfamide] | 13.7 | > 7.00 | 6.00 to 7.00
10 | COc1ccc2c(-c3ccc(CNS(N)(=O)=O)cc3Cl)ccnc2c1 [Example 419, N-(3-chloro-4-(7-methoxyquinolin-4-yl)benzyl)sulfamide] | >70 | > 7.00 | < 6.00
11 | COc1cc2c(N3CCC(CCNS(N)(=O)=O)CC3)ncnc2cc1F [Example 184, N-(2-(1-(7-fluoro-6-methoxyquinazolin-4-yl)piperidin-4-yl)ethyl)sulfamide] | > 18.0 | 6.00 to 7.00 | < 6.00
12 | COc1cc2ncnc(N3CCC4(CCNC4)CC3)c2cc1OC [Example 274, 8-(6,7-dimethoxyquinazolin-4-yl)-2,8-diazaspiro[4.5]decane] | >6.4 | 6.00 to 7.00 | < 6.00

More lines, now with the values ahead:

Row | Substrate Selectivity: Ki_AMP-pNP/Ki_cGAMP [1] | pKi [2] | pKi [3] | Compound
13 | >48.1 | > 7.00 | < 6.00 | COc1cc2nccc(Oc3cc(F)c(NS(N)(=O)=O)cc3F)c2cc1OC [Example 258, N-(4-((6,7-dimethoxyquinolin-4-yl)oxy)-2,5-difluorophenyl)sulfamide]
14 | 51.9 | > 7.00 | 6.00 to 7.00 | COc1ccc2c(Oc3ccc(NS(N)(=O)=O)cc3)ncnc2n1 [Example 227, N-(4-((7-methoxypyrido[2,3-d]pyrimidin-4-yl)oxy)phenyl)sulfamide]
15 | >7.1 | > 7.00 | 6.00 to 7.00 | COc1ccc2c(Nc3ccc(NS(N)(=O)=O)cc3)ccnc2c1F [Example 269, N-(4-((8-fluoro-7-methoxyquinolin-4-yl)amino)phenyl)sulfamide]
16 | >87.7 | > 7.00 | < 6.00 | COc1cc2ncnc(NC(c3ccc(NS(N)(=O)=O)cc3)C3CC3)c2cc1OC (stereo not drawn) [Example 246, N-(4-(cyclopropyl((6,7-dimethoxyquinazolin-4-yl)amino)methyl)phenyl)sulfamide]
17 | 27.9 | > 7.00 | 6.00 to 7.00 | NS(=O)(=O)N1CCC2(CCN(c3ncnc4ccc(F)cc34)CC2)C1 [Example 288, 8-(6-fluoroquinazolin-4-yl)-2,8-diazaspiro[4.5]decane-2-sulfonamide]
18 | 18 | > 7.00 | 6.00 to 7.00 | COc1ccc2c(-c3ccc4c(c3)CN(S(N)(=O)=O)CC4)ccnc2n1 [Example 365, 7-(7-methoxy-1,8-naphthyridin-4-yl)-3,4-dihydroisoquinoline-2(1H)-sulfonamide]
19 | >13.0 | > 7.00 | 6.00 to 7.00 | COc1ccc2c(Sc3ccc(NS(N)(=O)=O)cc3)ccnc2c1 [Example 302, N-(4-((7-methoxyquinolin-4-yl)thio)phenyl)sulfamide]
20 | >5.9 | > 7.00 | 6.00 to 7.00 | COc1cc2ncc(-c3ccc(CNS(N)(=O)=O)cc3)n2cc1OC [Example 266, N-(4-(6,7-dimethoxyimidazo[1,2-a]pyridin-3-yl)benzyl)sulfamide]
21 | 16.7 | > 7.00 | > 7.00 | COc1cc2ncc(C)c(-c3ccc4c(c3)CN(S(N)(=O)=O)CC4)c2cc1OC [Example 60, 7-(6,7-dimethoxy-3-methylquinolin-4-yl)-3,4-dihydroisoquinoline-2(1H)-sulfonamide]
22 | 55 | > 7.00 | < 6.00 | COc1ccc2c(Oc3ncc(NS(N)(=O)=O)cc3C)ccnc2c1 [Example 351, N-(6-((7-methoxyquinolin-4-yl)oxy)-5-methylpyridin-3-yl)sulfamide]
23 | >461 | > 7.00 | < 6.00 | COc1cc2ncc(C#N)c(-c3ccc(S(N)(=O)=O)cc3)c2cc1OC [Example 136, 4-(3-cyano-6,7-dimethoxyquinolin-4-yl)benzenesulfonamide]
24 | >142 | > 7.00 | < 6.00 | COc1ccc2c(Oc3ccc(S(=N)(=O)O)cc3F)ccnc2c1 [Example 382, 3-fluoro-4-((7-methoxyquinolin-4-yl)oxy)benzene sulfonamide]
25 | 54 | > 7.00 | 6.00 to 7.00 | COc1ccc2c(Oc3ccc(S(N)(=O)=O)cc3)c(C)cnc2c1 [Example 359, 4-((7-methoxy-3-methylquinolin-4-yl)oxy)benzene sulfonamide]
26 | 33.0 | > 7.00 | < 6.00 | COc1cc2nccc(OC3CCC(NS(N)(=O)=O)C3)c2cc1OC (stereo not drawn) [Example 213, N-(3-((6,7-dimethoxyquinolin-4-yl)oxy)cyclopentyl)sulfamide]
27 | >41 | > 7.00 | 6.00 to 7.00 | COc1ccc2c(N3CCc4c3ccc(NS(N)(=O)=O)c4F)ccnc2c1 [Example 379, N-(4-fluoro-1-(7-methoxyquinolin-4-yl)indolin-5-yl)sulfamide]
28 | 43 | > 7.00 | 6.00 to 7.00 | COc1ccc2nccc(N3CCC4(CC3)CCN(S(N)(=O)=O)C4)c2c1 [Example 364, 8-(6-methoxyquinolin-4-yl)-2,8-diazaspiro[4.5]decane-2-sulfonamide]
29 | 25.1 | > 7.00 | 6.00 to 7.00 | COc1cc2ncnc(NC(C)c3ccc(NS(N)(=O)=O)cc3)c2cc1OC (stereo not drawn) [Example 140, N-(4-(1-((6,7-dimethoxyquinazolin-4-yl)amino)ethyl)phenyl) sulfamide]
